Experimental data as given in US6906205B2, “Spiro and dispiro 1,2,4-trioxolane antimalarials” (Medicines for Malaria Venture MMV, priority 2002, dated 2005).

How the values were obtained:
P. berghei ANKA strain = test: treatment: 3x3 mg/kg and 3x1 mg/kg po divided doses in infected mice; format: in vivo, Plasmodium berghei; details: for infected mice cured: 3×3 mg/kg po on days 1, 2, 3 post-infection; for Activity (%) p.o. SSV: percent reduction of parasitemia day 4
Experimental: Moro NMRI male mice (Fü Albino specific pathogen free) weighing 18±2 g were infected intravenously (i.v.) with 2×10^7 P. berghei ANKA strain-infected erythrocytes from donor mice on day 0 of the experiment. From donor mice with circa 30% parasitemia, heparinized blood was taken and diluted in physiological saline to 10^8 parasitized erythrocytes per ml. An aliquot (0.2 ml) of this suspension was injected i.v. into experimental and control groups of mice. In untreated control mice, parasitemia rose regularly to 40 to 50% by day 3 post-infection and 70 to 80% by day 4 post-infection. The mice died between days 5 and 7 post-infection. Throughout the experiments, mice were kept in groups of three or five animals in Makrolon type II cages in an air-conditioned animal room at 22 to 23° C. A diet with p-aminobenzoic acid (PABA) of 45 mg (NAFAG FUTTER© food N^o 9009 PAB-45) per kg of body weight, and tap water is available ad libitum.
OZ compounds were prepared at an appropriate concentration, either as a solution or a suspension containing SSV (0.5% w/v CMC, 0.5% v/v benzyl alcohol, 0.4% v/v Tween 80, and 0.9% w/v sodium chloride in water). They were administered per os (p.o.) in a total volume of 0.01 ml per gram of mouse. The activity of the compound was determined by a variety of methods outlined in subsequent sections. Survival time was also recorded, and survival to day 30 post-infection was considered to be a cure.
The second experiment consists of administration of divided 3×3 mg/kg and 3×1 mg/kg po doses administered on days 1, 2, and 3 post-infection. On day 4 post-infection, blood smears of all animals were prepared and stained with Giemsa. Parasitemia was determined microscopically, and the difference between the mean value of the control group (taken as 100%) and those of the experimental groups was calculated and expressed as percent reduction. Compounds were administered orally in the SSV vehicle.

[1] = system: ANKA strain of P. berghei; test: single dose STI in vivo screen in infected mice; parameters: species or system Plasmodium berghei; details: for Activity (%) 3 mg/kg SSV po / Activity (%) 10 mg/kg SSV po: percent reduction in parasitemia day 3 post-infection; for Activity (%) 3 mg/kg SSV po: single 3 mg/kg po in SSV
Summary of the method: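 Groups of 3-5 Moro SPF or NMRI mice infected with the ANKA strain of P. berghei received a single dose of trioxolane on day one post-infection. The compound was given in 3% ethanol and 7% Tween 80 or in SSV (0.5% w/v CMC, 0.5% v/v benzyl alcohol, 0.4% v/v Tween 80, 0.9% w/v sodium chloride in water). Antimalarial activity was scored as percent reduction in parasitemia on day three and as survival time versus untreated controls. Survival to day 30 counted as cure.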

[2] = 3 × 1 mg/kg days 1, 2, 3 post-infection
[3] = 3 × 3 mg/kg days 1, 2, 3 post-infection

| SMILES | infected mice cured (P. berghei ANKA strain; SSV) | Activity (%) 3 mg/kg SSV po [1] | Activity (%) 10 mg/kg SSV po ([1]; single 10 mg/kg po in SSV) | activity (percent reduction of parasitemia) (P. berghei ANKA strain; 3×1 mg/kg po on days 1, 2, 3 post-infection, SSV) | Survival (days) 10 mg/kg SSV po ([1]; single 10 mg/kg po in SSV) | Survival (days) p.o. SSV (P. berghei ANKA strain; [2]) | Activity (%) p.o. SSV (P. berghei ANKA strain; [2]) | Survival (days) p.o. SSV (P. berghei ANKA strain; [3]) | Activity (%) p.o. SSV (P. berghei ANKA strain; [3]) |
| --- | --- | --- | --- | --- | --- | --- | --- | --- | --- |
| c1cc(OC[C@H]2CC[C@]3(CC2)OO[C@]2(O3)C3CC4CC(C3)CC2C4)ccn1 [OZ301] | ⅕ | 97% | 100% | – | – | – | – | – | – |
| NCCC(=O)NC[C@H]1CC[C@]2(CC1)OO[C@]1(O2)C2CC3CC(C2)CC1C3 [OZ336] | – | 98% | 99.93% | greater than 99% | 9.2 days | – | – | – | – |
| NC1CCN(C(=O)C[C@H]2CC[C@]3(CC2)OO[C@]2(O3)C3CC4CC(C3)CC2C4)CC1 [OZ339] | ⅗ | 99.65% | 99.95% | – | – | – | – | – | – |
| O=C(CC1CCC2(CC1)OOC1(O2)C2CC3CC(C2)CC1C3)N1CCC(O)CC1 (stereo not shown) [compound 297] | – | – | – | – | – | 6.4 days | 22% | 9.4 days | 89% |
| NS(=O)(=O)c1ccc(NCC2CCC3(CC2)OOC2(O3)C3CC4CC(C3)CC2C4)cc1 (stereo not shown) [compound 298] | – | – | – | – | – | 11 days | 93% | 16.4 days | 99.99% |
| O=c1ccn(CC2CCC3(CC2)OOC2(O3)C3CC4CC(C3)CC2C4)cc1 (stereo not shown) [compound 302] | – | – | – | – | – | 13.4 days | 87% | 13.4 days | 99.51% |
| Cc1ccc(S(=O)(=O)O)cc1.NCCNC(=O)CC1CCC2(CC1)OOC1(O2)C2CC3CC(C2)CC1C3 (stereo not shown) [compound 305] | – | – | – | – | – | 9.6 days | 87% | 12.2 days | 99.91% |
| CS(=O)(=O)O.O=C(O)CNCC1CCC2(CC1)OOC1(O2)C2CC3CC(C2)CC1C3 (stereo not shown) [compound 309] | – | – | – | – | – | 9.4 days | 66% | 9.2 days | 99% |
| NC1(C(=O)NCC2CCC3(CC2)OOC2(O3)C3CC4CC(C3)CC2C4)CCCC1 (stereo not shown) [compound 317] | – | – | – | – | – | 11.4 days | 73% | 16.8 days | 100% |
| CS(=O)(=O)O.NC(=O)CCNCC1CCC2(CC1)OOC1(O2)C2CC3CC(C2)CC1C3 (stereo not shown) [compound 319] | – | – | – | – | – | 13 days | 92% | 11.2 days | 99.97% |
| NC(=O)c1cn(CC2CCC3(CC2)OOC2(O3)C3CC4CC(C3)CC2C4)cn1 (stereo not shown) [compound 320] | – | – | – | – | – | 8.6 days | 50% | 9.6 days | 96% |
| CS(=O)(=O)O.NCCOc1ccc(C2CCC3(CC2)OOC2(O3)C3CC4CC(C3)CC2C4)cc1 (stereo not shown) [compound 323] | – | – | – | – | – | 14.4 days | 66% | 14.4 days | 99.95% |
